Consider 14 compounds from patent US11365185B2, “Lysophosphatidic acid receptor 1 (LPAR1) inhibitor compounds” (Eli Lilly and Company, priority 2017, dated 2022).

In assay [1] the test system is Human hepatic stellate cell line LX-2. The assay can be described thus: Calcium Influx of Human Hepatic Stellate Cells (LX-2). It counts as cell-based. The conditions noted are these: LX-2 cells, LPA-stimulated calcium influx. The procedure:
Calcium Influx of Human Hepatic Stellate Cells (LX-2)
Human hepatic stellate cell line LX-2 is purchased from EMD Millpore. LX-2 cells are seeded at 20,000-40,000 cells per well in a 96-well poly-D-lysine coated plate one day before the assay. Prior to the assay, the cells are washed once with assay buffer (HBSS containing 20 mM HEPES and 0.2% BSA) and then incubated in 50 μl of assay buffer for 60 minutes. Then 50 μl of a calcium indicator dye (Fluo-4 NW, Molecular Probes) are added to each well and incubation is continued for 30 minutes at 37° C. and then 30 minutes at room temperature. 50 μl of test compounds in 4% DMSO are added to the cells and incubation is continued at room temperature for 40 minutes. Cells are stimulated by the addition of 50 μl of 128 nM LPA and intracellular calcium is measured using the FLIPR TETRA (Molecular Devices). IC50 values are determined using “Genedata Screener” analysis tool.

Assay [2] addresses T1, LPAR1 (Homo sapiens (Human), UniProt Q92633). The assay can be described thus: LPAR1 Calcium Flux Assay. The format is cell-based. The conditions noted are these: U937 cells overexpressing human LPAR1, LPA-stimulated calcium, FLIPR. Here is the method: LPAR1 Calcium Flux Assays
A cDNA encoding the human LPAR1 receptor is synthesized and cloned into pDNA3 expression plasmid. The plasmid is transfected in U937 cells using Lipofectamine 2000 (Invitrogen Corp., USA). Clones stably expressing human LPAR1 are selected using puromycin and identified as cells that show Ca-influx in response to LPA.
U937 cells overexpressing human LPAR1 are seeded at 100,000 cells per well in a 96-well fibronectin (10 ug/ml) coated plate in 60 μl of assay buffer (HBSS containing 20 mM HEPES and 0.2% BSA) and then incubated for 60 minutes. Then 50 μl of a calcium indicator dye (Fluo-4 NW, Molecular Probes) are added to each well and incubation continued for 30 minutes at 37° C. and then 30 minutes at room temperature. 50 μl of test compounds in 4% DMSO are added to the cells and incubation continued at room temperature for 40 minutes. Cells are the stimulated by the addition of 50 μl of 128 nM LPA and intracellular calcium is measured using the FLIPR TETRA (Molecular Devices). IC50 values are determined using “Genedata Screener” analysis tool.
Target sequence in this assay (Q92633 whole entry): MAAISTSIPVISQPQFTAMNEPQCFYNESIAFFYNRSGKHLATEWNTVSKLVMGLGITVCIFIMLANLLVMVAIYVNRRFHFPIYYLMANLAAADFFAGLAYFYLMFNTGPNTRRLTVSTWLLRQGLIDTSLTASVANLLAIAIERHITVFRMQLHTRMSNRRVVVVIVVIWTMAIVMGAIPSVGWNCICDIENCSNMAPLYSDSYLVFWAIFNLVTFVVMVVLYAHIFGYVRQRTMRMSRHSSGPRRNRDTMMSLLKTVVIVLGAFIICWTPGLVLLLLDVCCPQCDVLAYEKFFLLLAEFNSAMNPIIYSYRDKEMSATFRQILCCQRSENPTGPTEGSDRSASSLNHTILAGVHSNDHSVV
A general note: Calcium assays in cells follow changes in intracellular calcium, usually with a dye or a luminescent sensor.

Assay [3] addresses T1, LPAR1. Briefly: LPAR1 Membrane Binding Assay. The settings on record: membrane containing LPAR1, radio labeled ligand, SPA. The procedure:
LPAR1 Membrane Binding Assay
The ability of a compound to inhibit binding of a ligand (1-(4′-(4-(((benzyloxy)carbonyl)amino)-3-methylisoxazol-5-yl)-[1,1′-biphenyl]-4-yl)cyclopropane-1-carboxylic acid) to LPAR1 is assessed via a membrane binding assay. Membrane containing LPAR1 was purchased from Cerep (Cat. No. 290312RB). Prior to the assay, membrane is thawed and homogenized for 15 seconds. 50 μl of test compounds and 50 μl of radio labeled ligand are added to the 96-well plates and then 50 of μl membrane (50-400 ug/ml) are added. Next, 50 μl of SPA PVT WGA beads are added (1-5 mg/ml) and the plates are sealed and incubated at room temperate for 5 minutes. Radio activity is measured by Beta Counter and IC50 values are determined using “Genedata Screener” analysis tool.
Target sequence in this assay (Q92633 whole entry, species assumed): as the sequence (Q92633 whole entry) above

For another assay, the target named is human LPAR3 (Homo sapiens (Human), UniProt Q9UBY5). The assay can be described thus: LPAR3 Calcium Flux Assay. The format is cell-based. The conditions noted are these: U2OS cells overexpressing human LPAR3, LPA-stimulated calcium, FLIPR. The procedure: LPAR3 Calcium Flux Assays
A cDNA encoding the human LPAR3 receptor is synthesized and cloned into pDNA3 expression plasmid. The plasmid is transfected in U2OS cells using Lipofectamine 2000 (Invitrogen Corp., USA). Clones stably expressing human LPAR3 are selected using neomycin and identified as cells that show Ca-influx in response to LPA.
U2OS cells overexpressing human LPAR3 are seeded at 20,000-40,000 cells per well in a 96-well poly-D-lysine coated plate one day before the assay. Prior to the assay, the cells are washed once with assay buffer (HBSS containing 20 mM HEPES and 0.2% BSA) and then incubated in 50 μl of assay buffer for 60 minutes. Then 50 μl of a calcium indicator dye (Fluo-4 NW, Molecular Probes) are added to each well and incubation is continued for 30 minutes at 37° C. and then 30 minutes at room temperature. 50 μl of test compounds in 4% DMSO are added to the cells and incubation continued at room temperature for 40 minutes. Cells are stimulated by the addition of 50 μl of 128 nM LPA and intracellular calcium is measured using the FLIPR TETRA (Molecular Devices). IC50 values are determined using “Genedata Screener” analysis tool.

The target of assay [4] is T1, LPAR1. The assay can be described thus: LPAR1 Cytokine Release Assay (IL-6, MG63 cells). It counts as cell-based. The settings on record: LPA-stimulated IL-6 levels, 24 hours, ELISA. The procedure:
LPAR1 Cytokine Release Assay
Human MG63 cells are seeded at 20,000 per well in 96-well plates and incubated in MEM medium. One day later, the cell culture medium is removed and 60 μl of test compounds are added to each well. 30 minutes later, 60 μl of LPA (10 μM) are added to each well. 24 hours later, 50 μl of supernatant from each well are taken and IL-6 levels are measure by using ELISA kit (R&D Systems, Cat. No. D6050). IC50 values are determined using “Genedata Screener” analysis tool.
Target sequence in this assay (Q92633 whole entry): as above
(An ELISA detects its analyte on a solid surface through an enzyme-linked reagent.)

pIC50, pKi: −log10 of the molar value. Structures can show the parent of a compound that is named as a salt.

Chain of human LPAR3 (Q9UBY5 whole entry): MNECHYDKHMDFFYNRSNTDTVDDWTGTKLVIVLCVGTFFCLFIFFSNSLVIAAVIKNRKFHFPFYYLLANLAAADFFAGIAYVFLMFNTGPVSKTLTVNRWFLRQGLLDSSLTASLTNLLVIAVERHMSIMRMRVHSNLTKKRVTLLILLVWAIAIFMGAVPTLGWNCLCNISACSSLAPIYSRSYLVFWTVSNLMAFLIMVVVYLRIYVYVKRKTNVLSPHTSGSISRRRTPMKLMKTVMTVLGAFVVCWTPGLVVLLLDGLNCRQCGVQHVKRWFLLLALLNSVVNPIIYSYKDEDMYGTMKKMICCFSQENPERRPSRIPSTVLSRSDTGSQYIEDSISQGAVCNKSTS

Regarding `COC(C)(C)c1cncc(Nc2c(-c3ccc(-c4ccc(C5(C(=O)O)CC5)cc4)cn3)cnn2C)n1` [Example 6, 1-[4-[6-[5-[[6-(1-methoxy-1-methyl-ethyl)pyrazin-2-yl]amino]-1-methyl-pyrazol-4-yl]-3-pyridyl]phenyl]cyclopropanecarboxylic Acid; Hydrochloride], the pIC50 – broadly, the IC50 on a negative log10 scale, so that one unit is a factor of ten – in assay [1] was 7.22; at LPAR1 [2], 6.91; on human LPAR3, 5.28. Besides, the negative-log Ki (pKi) (usually −log10 of the Ki, conventionally taken in molar units) at LPAR1 [3] was 6.94.

For `Cc1cc(-c2ccc(-c3cnn(C)c3Nc3cncc(OC(C)C)n3)nc2)ccc1C1(C(=O)O)CC1` [Example 7, 1-[4-[6-[5-[(6-isopropoxypyrazin-2-yl)amino]-1-methyl-pyrazol-4-yl]-3-pyridyl]-2-methyl-phenyl]cyclopropanecarboxylic Acid; Hydrochloride], the values for the pIC50 (in assay [1]; at LPAR1 [2]; at human LPAR3) were 7.79, 7.57 and 5.98, respectively. This compound also gave a pKi on LPAR1 [3] of 7.14.

As for `Cn1ncc(-c2ccc(-c3ccc(C4(C(=O)O)CC4)cc3)cn2)c1Nc1cncc(OC2CC2)n1` [Example 10, 1-[4-[6-[5-[[6-(cyclopropoxy)pyrazin-2-yl]amino]-1-methyl-pyrazol-4-yl]-3-pyridyl]phenyl]cyclopropanecarboxylic Acid], the results for the pIC50 (in assay [1]; at LPAR1 [2]; at human LPAR3) were 8.27, 8.01 and 5.35, respectively. Also, the pKi at LPAR1 [3] is 7.90.

Take `CC(C)Oc1cncc(Nc2c(-c3ncc(-c4ccc(C5(C(=O)O)CC5)cc4)cc3F)cnn2C)n1` [Example 11, 1-[4-[5-fluoro-6-[5-[(6-isopropoxypyrazin-2-yl)amino]-1-methyl-pyrazol-4-yl]-3-pyridyl]phenyl]cyclopropanecarboxylic Acid; Hydrochloride]: the pIC50 in assay [1] is 8.00; at LPAR1 [2], 7.95; at human LPAR3, 6.31. In addition, the pKi on LPAR1 [3] was 7.46.

`Cn1ncc(-c2ccc(-c3ccc(C4(C(=O)O)CC4)cc3)cn2)c1Nc1cncc(C(C)(F)F)n1` [Example 12, 1-[4-[6-[5-[[6-(1,1-difluoroethyl)pyrazin-2-yl]amino]-1-methyl-pyrazol-4-yl]-3-pyridyl]phenyl]cyclopropanecarboxylic Acid; Hydrochloride]: the pIC50 was 7.84 in assay [1], 7.61 on LPAR1 [2] and 5.37 at human LPAR3. The compound also showed a pKi on LPAR1 [3] of 7.39.

For the compound `Cn1ncc(-c2ccc(-c3ccc(C4(C(=O)O)CC4)cc3)cn2)c1Nc1cncc(C(C)(C)F)n1` [Example 13, 1-[4-[6-[5-[[6-(1-fluoro-1-methyl-ethyl)pyrazin-2-yl]amino]-1-methyl-pyrazol-4-yl]-3-pyridyl]phenyl]cyclopropanecarboxylic Acid; Hydrochloride], the figures for the pIC50 (in assay [1]; on LPAR1 [2]; on human LPAR3) were 7.98, 7.36 and 6.09, respectively. Further, at LPAR1 [3], the pKi is 7.55.

Turning to `CC(C)c1cncc(Nc2c(-c3ccc(-c4ccc(C5(C(=O)O)CC5)cc4CC#N)cn3)cnn2C)n1` [Example 15, 1-[3-(cyanomethyl)-4-[6-[5-[(6-isopropylpyrazin-2-yl)amino]-1-methyl-pyrazol-4-yl]-3-pyridyl]phenyl]cyclopropanecarboxylic Acid; Hydrochloride], the pIC50 in assay [1] is 7.71; on LPAR1 [2] it was 7.37; on human LPAR3, less than 5.00. The pKi at LPAR1 [3] was 7.02.

On to `CC(C)c1cncc(Nc2c(-c3ccc(-c4ccc(C5(C(=O)O)CC5)cc4C#N)cn3)cnn2C)n1` [Example 16, 1-[3-cyano-4-[6-[5-[(6-isopropylpyrazin-2-yl)amino]-1-methyl-pyrazol-4-yl]-3-pyridyl]phenyl]cyclopropanecarboxylic Acid; Hydrochloride], for which the pIC50 in assay [1] was 7.74; at LPAR1 [2], 7.53; on human LPAR3, 5.34. In addition, the pKi at LPAR1 [3] was 7.27.

Regarding `CC(C)Cc1cncc(Nc2c(-c3ccc(-c4ccc(C5(C(=O)O)CC5)cc4)cc3)cnn2C)n1` [Example 17, 1-[4-[4-[5-[(6-isobutylpyrazin-2-yl)amino]-1-methyl-pyrazol-4-yl]phenyl]phenyl]cyclopropanecarboxylic Acid], the pIC50 at LPAR1 [4] was 8.24; in assay [1], 7.64; at LPAR1 [2], 7.26; at human LPAR3 it was 5.74.

On to `CC(C)c1cncc(Nc2c(-c3ncc(-c4ccc(C5(C(=O)O)CC5)cc4)cn3)cnn2C)n1` [Example 18, 1-[4-[2-[5-[(6-isopropylpyrazin-2-yl)amino]-1-methyl-pyrazol-4-yl]pyrimidin-5-yl]phenyl]cyclopropanecarboxylic acid], for which the pIC50 is 8.18 on LPAR1 [4], 8.10 in assay [1], 7.62 on LPAR1 [2] and 5.63 on human LPAR3. The negative-log Ki (pKi) on LPAR1 [3] was 7.61.

Turning to `Cc1cc(C2(C(=O)O)CC2)ccc1-c1ccc(-c2cnn(C)c2Nc2cncc(C(C)C)n2)nc1` [Example 22, 1-[4-[6-[5-[(6-isopropylpyrazin-2-yl)amino]-1-methyl-pyrazol-4-yl]-3-pyridyl]-3-methyl-phenyl]cyclopropanecarboxylic Acid; Hydrochloride], the pIC50 against LPAR1 [4] is 7.95; in assay [1] it was 7.98; at LPAR1 [2] it was 7.51; on human LPAR3, 5.93.

In the case of `CC(C)c1cncc(Nc2c(-c3ccc(-c4ccc(C5(C(=O)O)CC5)nc4)cn3)cnn2C)n1` [Example 23, Ammonia; 1-[5-[6-[5-[(6-isopropylpyrazin-2-yl)amino]-1-methyl-pyrazol-4-yl]-3-pyridyl]-2-pyridyl]cyclopropanecarboxylic Acid], the pIC50 against LPAR1 [4] was 6.74; in assay [1] it was 7.67; at LPAR1 [2], 6.95; at human LPAR3, less than 5.00.

As for `CC(C)c1cncc(Nc2c(-c3ccc(-c4ccc(C5(C(=O)O)CC5)cn4)cn3)cnn2C)n1` [Example 24, 1-[6-[6-[5-[(6-isopropylpyrazin-2-yl)amino]-1-methyl-pyrazol-4-yl]-3-pyridyl]-3-pyridyl]cyclopropanecarboxylic Acid; Dihydrochloride], the figures for the pIC50 (in assay [1]; on LPAR1 [2]; on human LPAR3) were 7.82, 7.32 and 5.56, respectively. This compound showed a pKi on LPAR1 [3] of 7.34.

`Cn1ncc(-c2ccc(-c3ccc(C4(C(=O)O)CC4)cc3)cc2)c1Nc1cncc(C2CC2)n1` [Example 25, Ammonium 1-[4-[4-[5-[(6-cyclopropylpyrazin-2-yl)amino]-1-methyl-pyrazol-4-yl]phenyl]phenyl]cyclopropanecarboxylate]: the pIC50 in assay [1] is 7.62; at LPAR1 [2], 7.28; at human LPAR3 it was less than 5.00. Moreover, the pKi at LPAR1 [3] was 7.51.
